From ChEMBL document CHEMBL3272131, “Molecular connectivity. 6. Examination of the parabolic relationship between molecular connectivity and biological activity” (J Med Chem, 1976)

Tests used:
[1] = Drug absorption in intestine (unknown origin) assessed as tissue-bound transfer; assay type: ADME, tissue-based
[2] = Drug absorption in intestine (unknown origin) assessed as mucosal loss; assay type: ADME, tissue-based
[3] = Drug absorption in intestine (unknown origin) assessed as serosal transfer; assay type: ADME, tissue-based
Staphylococcus aureus = experiment: Antimicrobial activity against Staphylococcus aureus; assay type: functional
Pseudomonas aeruginosa = experiment: Antimicrobial activity against Pseudomonas aeruginosa; assay type: functional
Clostridium perfringens = experiment: Antimicrobial activity against Clostridium welchii; assay type: functional
Mus musculus = experiment: Induction of anesthetic activity in mouse; assay type: functional
Rattus norvegicus = species: Rattus norvegicus; experiment: Induction of hypnotic activity in rat; assay type: functional
Oryctolagus cuniculus = species: Oryctolagus cuniculus; experiment: Induction of hypnotic activity in rabbit; assay type: functional
[4] = tested on: Mycobacterium tuberculosis; experiment: Antimicrobial activity against Mycobacterium tuberculosis; assay type: functional
[5] = Toxicity in sheep RBC assessed as hemolysis; assay type: cell-based, Ovis aries; settings: erythrocyte

CC(C)(C)OC(N)=O
log%Abs [1]: 0 | log%Abs [2]: 0.73 | log%Abs [3]: 0.65

CCCCCCCCCCCCC[N+](C)(C)Cc1ccccc1 [BENZALKONIUM]
-log(1/MIC) (Staphylococcus aureus): 5.8 | -log(1/MIC) (Pseudomonas aeruginosa): 3.8 | -log(1/MKC) (Pseudomonas aeruginosa): 3.85 | -log(1/MIC) (Clostridium perfringens): 5.1 | -log(1/MKC) (Clostridium perfringens): 5.1

CC(C)CCC1(CC(C)(C)C)C(=O)NC(=O)NC1=O
-log(1/AD50) (Mus musculus): 3.26

C=CCC1(CC)C(=O)NC(=O)NC1=O [ETALLOBARBITAL]
-log(1/MED) (Rattus norvegicus): 3.28

CCCC1(CCC)C(=O)NC(=O)NC1=O
-log(1/MED) (Oryctolagus cuniculus): 3.55

CCOC(N)=O [URETHANE]
log%Abs [1]: -0.22 | log%Abs [2]: 0.6 | log%Abs [3]: 0.53

CCCCCCCCCCCCCCC[N+](C)(C)Cc1ccccc1
-log(1/MIC) (Staphylococcus aureus): 5.84 | -log(1/MIC) (Pseudomonas aeruginosa): 3.84 | -log(1/MKC) (Pseudomonas aeruginosa): 3.74 | -log(1/MIC) (Clostridium perfringens): 5.14 | -log(1/MKC) (Clostridium perfringens): 5.14

CCOc1ccc(N)cc1
-log(1/MIC) [4]: 4.44

CCCC(C)(C)OC(N)=O
log%Abs [1]: -0.21 | log%Abs [2]: 0.26 | log%Abs [3]: 0.09

CCCCC1(CCCC)C(=O)NC(=O)NC1=O
-log(1/MED) (Rattus norvegicus): 3.08

C=CCC1(CC=C)C(=O)NC(=O)NC1=O [ALLOBARBITAL]
-log(1/MED) (Rattus norvegicus): 3.54

CC(C)CC1(CC(C)(C)C)C(=O)NC(=O)NC1=O
-log(1/AD50) (Mus musculus): 3.27

CCCCCCCCCCCCCCCCCC[N+](C)(C)Cc1ccc(Cl)cc1Cl
-log(1/MIC) (Staphylococcus aureus): 3.3

CCCCCCCCCC[N+](C)(C)Cc1ccccc1
-log(1/MIC) (Staphylococcus aureus): 4.74 | -log(1/HC50) [5]: 2.95 | -log(1/MIC) (Pseudomonas aeruginosa): 2.74 | -log(1/MKC) (Pseudomonas aeruginosa): 2.41 | -log(1/MIC) (Clostridium perfringens): 3.57 | -log(1/MKC) (Clostridium perfringens): 3.57

CCCCCCCCCCCCCCCCCC[N+](C)(C)Cc1ccccc1
-log(1/MIC) (Staphylococcus aureus): 5.19 | -log(1/HC50) [5]: 4.52 | -log(1/MKC) (Pseudomonas aeruginosa): 2.63 | -log(1/MIC) (Clostridium perfringens): 4.71 | -log(1/MKC) (Clostridium perfringens): 4.71

CCCCC1(CC)C(=O)NC(=O)NC1=O [BUTETHAL]
-log(1/MED) (Rattus norvegicus): 3.53

CCCCCOc1ncccc1N
-log(1/MIC) [4]: 5.76

C=CCC1(CCC(C)C)C(=O)NC(=O)NC1=O
-log(1/MED) (Rattus norvegicus): 3.45

CCCCCOc1ccc(N)cc1
-log(1/MIC) [4]: 5.45

CCCOC(N)=O
log%Abs [1]: -0.04 | log%Abs [2]: 0.78 | log%Abs [3]: 0.71

CCC1(C(C)C(C)(C)C)C(=O)NC(=O)NC1=O (configuration not stated)
-log(1/AD50) (Mus musculus): 3.15

CCCC1(CC(C)(C)C)C(=O)NC(=O)NC1=O
-log(1/AD50) (Mus musculus): 3.04

CCCCCCCOc1ncccc1N
-log(1/MIC) [4]: 4.62

CCCCCCCCCCOc1ncccc1N
-log(1/MIC) [4]: 3.19

CCCCCCOc1ccc(N)cc1
-log(1/MIC) [4]: 5.8

COc1ncccc1N
-log(1/MIC) [4]: 2.59

CC(C)COC(N)=O
log%Abs [1]: 0.04 | log%Abs [2]: 0.83 | log%Abs [3]: 0.75

NC(=O)OCc1ccccc1 [BENZYL CARBAMATE]
log%Abs [1]: 0.01 | log%Abs [2]: 0.69 | log%Abs [3]: 0.59

CCCCC1(C(C)C)C(=O)NC(=O)NC1=O
-log(1/MED) (Rattus norvegicus): 3.49

COC(N)=O [METHYL CARBAMATE]
log%Abs [1]: -0.38 | log%Abs [2]: 0.52 | log%Abs [3]: 0.45

CCCC1(C(C)C(C)(C)C)C(=O)NC(=O)NC1=O (configuration not stated)
-log(1/AD50) (Mus musculus): 3.29

CCCCCCCCOC(N)=O
log%Abs [1]: -0.57 | log%Abs [2]: -0.19 | log%Abs [3]: -0.43

CCC1(CC(C)C)C(=O)NC(=O)NC1=O
-log(1/MED) (Oryctolagus cuniculus): 3.63

CCCOc1ncccc1N
-log(1/MIC) [4]: 4.79

CCCCOc1ccc(N)cn1
-log(1/MIC) [4]: 5.13

CC(C(C)(C)C)C1(C)C(=O)NC(=O)NC1=O (configuration not stated)
-log(1/AD50) (Mus musculus): 2.64

C=CCC1(C(C)C(C)(C)C)C(=O)NC(=O)NC1=O (configuration not stated)
-log(1/AD50) (Mus musculus): 3.39

CCCCCCCCCCCCCCCC[N+](C)(C)Cc1ccccc1 [CETALKONIUM]
-log(1/MIC) (Staphylococcus aureus): 5.56 | -log(1/HC50) [5]: 4.79 | -log(1/MIC) (Pseudomonas aeruginosa): 3.68 | -log(1/MKC) (Pseudomonas aeruginosa): 3.3 | -log(1/MIC) (Clostridium perfringens): 5.16 | -log(1/MKC) (Clostridium perfringens): 5.16

CCCCCCOc1ccc(N)cn1
-log(1/MIC) [4]: 5.49

CCCCCCCCCCCCCC[N+](C)(C)Cc1ccccc1 [MIRISTALKONIUM ION]
-log(1/MIC) (Staphylococcus aureus): 5.82 | -log(1/HC50) [5]: 4.4 | -log(1/MIC) (Pseudomonas aeruginosa): 3.65 | -log(1/MKC) (Pseudomonas aeruginosa): 3.96 | -log(1/MIC) (Clostridium perfringens): 5.12 | -log(1/MKC) (Clostridium perfringens): 5.12

CCCCCCCCCCCC[N+](C)(C)Cc1ccccc1 [BENZODODECINIUM]
-log(1/MIC) (Staphylococcus aureus): 5.61 | -log(1/HC50) [5]: 3.82 | -log(1/MIC) (Pseudomonas aeruginosa): 3.61 | -log(1/MKC) (Pseudomonas aeruginosa): 3.45 | -log(1/MIC) (Clostridium perfringens): 4.61 | -log(1/MKC) (Clostridium perfringens): 4.61

CCCCOc1ccc(N)cc1
-log(1/MIC) [4]: 5.42

CCCCCCCC[N+](C)(C)Cc1ccccc1
-log(1/MIC) (Staphylococcus aureus): 3.69 | -log(1/HC50) [5]: 1.52 | -log(1/MKC) (Pseudomonas aeruginosa): 1.68 | -log(1/MIC) (Clostridium perfringens): 3 | -log(1/MKC) (Clostridium perfringens): 2.69

CC(C)COc1ncccc1N
-log(1/MIC) [4]: 4.52

CCC1(CCC(C)C)C(=O)NC(=O)NC1=O [AMOBARBITAL]
-log(1/MED) (Rattus norvegicus): 3.59

CCCCOc1ccncc1N
-log(1/MIC) [4]: 5.73

COc1ccc(N)cc1
-log(1/MIC) [4]: 3.39

C=CCC1(CC(C)C)C(=O)NC(=O)NC1=O [BUTALBITAL]
-log(1/MED) (Rattus norvegicus): 3.63

CCCCCCCCCCCCCCCC[N+](C)(C)Cc1ccc2c(c1)OCO2
-log(1/MIC) (Staphylococcus aureus): 4.2

CCCCCCCCCCCCCCCCC[N+](C)(C)Cc1ccccc1
-log(1/MIC) (Staphylococcus aureus): 5.18 | -log(1/MIC) (Pseudomonas aeruginosa): 3.57 | -log(1/MKC) (Pseudomonas aeruginosa): 3.06 | -log(1/MIC) (Clostridium perfringens): 4.7 | -log(1/MKC) (Clostridium perfringens): 4.7

CCCCCC1(CC(C)(C)C)C(=O)NC(=O)NC1=O
-log(1/AD50) (Mus musculus): 3.32

CCC1(CC(C)(C)C)C(=O)NC(=O)NC1=O
-log(1/AD50) (Mus musculus): 2.91

C=CCC1(C(C)C)C(=O)NC(=O)NC1=O [APROBARBITAL]
-log(1/MED) (Rattus norvegicus): 3.6

CCCCCCCCOc1ccc(N)cc1
-log(1/MIC) [4]: 3.44

CCCCCCOc1ccncc1N
-log(1/MIC) [4]: 5.8

CCCCCCCC[N+](C)(C)Cc1ccc(Cl)cc1
-log(1/MIC) (Staphylococcus aureus): 2.6

C=CCC1(CCCC)C(=O)NC(=O)NC1=O
-log(1/MED) (Rattus norvegicus): 3.47

CCCCCCCOC(N)=O
log%Abs [1]: -0.28 | log%Abs [2]: 0.08 | log%Abs [3]: -0.17

C=CCC1(CCC)C(=O)NC(=O)NC1=O
-log(1/MED) (Rattus norvegicus): 3.47

C=CCC1(C(C)CC)C(=O)NC(=O)NC1=O (configuration not stated) [TALBUTAL]
-log(1/MED) (Rattus norvegicus): 3.78

CCCCC1(C(C)C(C)(C)C)C(=O)NC(=O)NC1=O (configuration not stated)
-log(1/AD50) (Mus musculus): 3.36

CCCC1(CCC(C)C)C(=O)NC(=O)NC1=O
-log(1/MED) (Oryctolagus cuniculus): 3.48

CCCCCCCCOc1ncccc1N
-log(1/MIC) [4]: 3.75

CCCCOC(N)=O
log%Abs [1]: 0.1 | log%Abs [2]: 0.9 | log%Abs [3]: 0.82

CCCCCCCCCCCCCCCCCCC[N+](C)(C)Cc1ccccc1
-log(1/MIC) (Staphylococcus aureus): 4.91 | -log(1/MIC) (Pseudomonas aeruginosa): 2.91 | -log(1/MKC) (Pseudomonas aeruginosa): 2.52 | -log(1/MIC) (Clostridium perfringens): 4.73 | -log(1/MKC) (Clostridium perfringens): 4.73

CCCCCCOC(N)=O
log%Abs [1]: -0.05 | log%Abs [2]: 0.5 | log%Abs [3]: 0.35

CCCCCCCCCCCC[N+](C)(C)Cc1ccc2c(c1)OCO2
-log(1/MIC) (Staphylococcus aureus): 4

CC(C)(C)CC1(C)C(=O)NC(=O)NC1=O
-log(1/AD50) (Mus musculus): 2.12

CCCCCCCCCC[N+](C)(C)Cc1ccc(Cl)cc1
-log(1/MIC) (Staphylococcus aureus): 3.6

CCCCCOC(N)=O
log%Abs [1]: 0.02 | log%Abs [2]: 0.68 | log%Abs [3]: 0.57

CCC1(c2ccccc2)C(=O)NC(=O)NC1=O [PHENOBARBITAL]
-log(1/MED) (Oryctolagus cuniculus): 3.46

CCCCC1(CC(C)(C)C)C(=O)NC(=O)NC1=O
-log(1/AD50) (Mus musculus): 3.33

CCC1(CC)C(=O)NC(=O)NC1=O [BARBITAL]
-log(1/MED) (Rattus norvegicus): 2.91

CCCC1(C(C)C)C(=O)NC(=O)NC1=O
-log(1/MED) (Oryctolagus cuniculus): 3.63

CCCCCCCCCCC[N+](C)(C)Cc1ccccc1
-log(1/MIC) (Staphylococcus aureus): 5.06 | -log(1/MIC) (Pseudomonas aeruginosa): 3.06 | -log(1/MKC) (Pseudomonas aeruginosa): 2.92 | -log(1/MIC) (Clostridium perfringens): 4.06 | -log(1/MKC) (Clostridium perfringens): 4.06

CCCCOc1ccc(N)c2ccccc12
-log(1/MIC) [4]: 4.03

CCOc1ncccc1N
-log(1/MIC) [4]: 3.54

CCC(C)(C)OC(N)=O
log%Abs [1]: 0.04 | log%Abs [2]: 0.77 | log%Abs [3]: 0.68
